Source: EP2970215B1, “PYRROLIDINE DERIVATIVES, PHARMACEUTICAL COMPOSITIONS CONTAINING THEM, AND THEIR USE IN THERAPY” (AbbVie Deutschland GmbH & Co. KG, priority 2013, dated 2014)

Target: T1, human GlyT1c transporter (Homo sapiens, UniProt P48067)
T1 construct: expressed in transfected cells; host or cells: CHO cells (recombinant; line hGlyT1c_5_CHO is named for the uptake assay)
T1 sequence (P48067 1-706): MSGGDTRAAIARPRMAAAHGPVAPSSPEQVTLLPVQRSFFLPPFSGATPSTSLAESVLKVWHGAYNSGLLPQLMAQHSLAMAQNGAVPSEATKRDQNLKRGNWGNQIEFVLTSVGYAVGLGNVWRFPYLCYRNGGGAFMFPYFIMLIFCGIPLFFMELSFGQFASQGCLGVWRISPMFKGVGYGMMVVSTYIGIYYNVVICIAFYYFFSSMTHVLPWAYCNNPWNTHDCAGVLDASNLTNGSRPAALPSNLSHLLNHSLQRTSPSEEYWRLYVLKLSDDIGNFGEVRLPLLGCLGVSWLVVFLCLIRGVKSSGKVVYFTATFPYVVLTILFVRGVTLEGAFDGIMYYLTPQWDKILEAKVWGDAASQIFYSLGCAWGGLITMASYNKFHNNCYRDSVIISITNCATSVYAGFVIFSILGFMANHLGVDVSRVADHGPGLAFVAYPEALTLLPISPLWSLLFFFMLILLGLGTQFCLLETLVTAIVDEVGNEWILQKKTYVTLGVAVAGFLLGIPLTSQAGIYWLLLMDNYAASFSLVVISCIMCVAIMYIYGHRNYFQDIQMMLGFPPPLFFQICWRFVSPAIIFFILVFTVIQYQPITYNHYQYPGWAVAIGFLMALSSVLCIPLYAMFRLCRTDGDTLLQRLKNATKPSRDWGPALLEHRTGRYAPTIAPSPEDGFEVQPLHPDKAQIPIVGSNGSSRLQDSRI
Assay: Radioligand binding assay using recombinant CHO cell membranes expressing human GlyT1
Settings: radioligand binding to human GlyT1c transporter-expressing membranes
Source text: 2. Radioligand binding assays using recombinant CHO cell membranes expressing human GlyT1: […]

SMILES | Ki
COCCNC(=O)[C@@H]1CN(S(=O)(=O)c2cn(C)cn2)C[C@H]1c1ccc(F)cc1 [Example 579, (3S,4R)-4-(4-fluorophenyl)-N-(2-methoxyethyl)-1-[(1-methyl-1H-imidazol-4-yl)sulfonyl]pyrrolidine-3-carboxamide] | ≤ 10 µM
Cn1cnc(S(=O)(=O)N2C[C@@H](Nc3ccc(F)c(OC(F)(F)F)c3)[C@H](c3ccccc3)C2)c1 (relative stereo) [Example 298, trans-N-[4-fluoro-3-(trifluoromethoxy)phenyl]-1-[(1-methyl-1H-imidazol-4-yl)sulfonyl] -4-phenylpyrrolidin-3-amine] | ≤ 0.01 µM
Cn1cnc(S(=O)(=O)N2C[C@@H](O)[C@H](Nc3cccc(Cl)c3)C2)c1 (relative stereo) [Example 373, Trans-4-[(3-chlorophenyl)amino]-1-[(1-methyl-1H-imidazol-4-yl)sulfonyl]pyrrolidin-3-ol] | ≤ 10 µM
Cn1cnc(S(=O)(=O)N2C[C@@H](Nc3ccccc3C(F)(F)F)[C@H](c3ccccc3)C2)c1 (relative stereo) [Example 66, trans-1-[(1-methyl-1H-imidazol-4-yl)sulfonyl]-4-phenyl-N-[2-(trifluoromethyl)phenyl]pyrrolidin-3-amine] | ≤ 10 µM
Cn1cnc(S(=O)(=O)N2C[C@@H](NCc3cccnc3)[C@H](c3ccc(F)cc3)C2)c1 (relative stereo) [Example 269, trans-4-(4-fluorophenyl)-1-[(1-methyl-1H-imidazol-4-yl)sulfonyl]-N-(pyridin-3-ylmethyl)pyrrolidin-3-amine] | ≤ 10 µM
Cn1cnc(S(=O)(=O)N2C[C@@H](Nc3ccccc3F)[C@H](c3ccc(F)cc3)C2)c1 (relative stereo) [Example 90, trans-N-(2-fluorophenyl)-4-(4-fluorophenyl)-1-[(1-methyl-1H-imidazol-4-yl)sulfonyl]pyrrolidin-3-amine] | ≤ 1 µM
CCCC1CC1CN[C@H]1CN(S(=O)(=O)c2cn(C)cn2)C[C@@H]1c1ccccc1 (stereo partly drawn) [Example 649, (3R,4S)-1-[(1-methyl-1H-imidazol-4-yl)sulfonyl]-4-phenyl-N-[(2-propylcyclopropyl)methyl]pyrrolidin-3-amine] | ≤ 0.1 µM
COc1nccc(N[C@H]2CN(S(=O)(=O)c3cn(C)cn3)C[C@@H]2c2ccccc2)n1 [Example 532, 2-methoxy-N-{(3R,4S)-1-[(1-methyl-1H-imidazol-4-yl)sulfonyl]-4-phenylpyrrolidin-3-yl}pyrimidin-4-amine] | ≤ 10 µM
Cn1cnc(S(=O)(=O)N2C[C@H](NCC3CC3c3ccccc3)[C@@H](c3ccccc3)C2)c1 (stereo partly drawn) [Example 564, (3R,4S)-1-[(1-methyl-1H-imidazol-4-yl)sulfonyl]-4-phenyl-N-[(2-phenylcyclopropyl)methyl]pyrrolidin-3-amine] | ≤ 1 µM
Cn1cnc(S(=O)(=O)N2C[C@H](Nc3cc(OCC(F)(F)F)c(Cl)cn3)[C@@H](c3ccc(F)cc3)C2)c1 [Example 806, 5-chloro-N-{(3R,4S)-4-(4-fluorophenyl)-1-[(1-methyl-1H-imidazol-4-yl)sulfonyl]pyrrolidin-3-yl}-4-(2,2,2-trifluoroethoxy)pyridin-2-amine] | ≤ 0.01 µM
Cn1cnc(S(=O)(=O)N2C[C@@H](Nc3ccc(F)cc3)[C@H](c3cccc(F)c3)C2)c1 (relative stereo) [Example 187, trans-4-(3-fluorophenyl)-N-(4-fluorophenyl)-1-[(1-methyl-1H-imidazol-4-yl)sulfonyl]pyrrolidin-3-amine] | ≤ 10 µM
COc1ccc(S(=O)(=O)N2C[C@@H](NC(=O)c3cc(Cl)cc(Cl)c3)[C@H](c3ccccc3)C2)cc1 (relative stereo) [Example 135] | > 10 µM
Cn1cnc(S(=O)(=O)N2C[C@@H](NC(=O)c3ccc(C#N)cc3)[C@H](c3ccccc3)C2)c1 (relative stereo) [Example 34, 4-cyano-N-{trans-1-[(1-methyl-1H-imidazol-4-yl)sulfonyl]-4-phenylpyrrolidin-3-yl} benzamide] | ≤ 10 µM
